“And” between values parts separate entries of the source, which are not always exact repeats. Equal entries are not always repeated. Where two headings read alike, the source gives them in different places.
What was measured:
[1] = tested on: Pseudokirchneriella subcapitata; assay: Green alga cell growth (cell count); type: cell-based
Description: (§1) Control group (panel A) received only growth medium (100 mL). Each treatment received 1.2×10^6 cells/mL on day-0 and were allowed to grow until day-28 when the experiments were halted. Cell count was recorded on day-7 (acute), day-14 and day-28 (chronic).
(§2) 1.a. […] Experiments were repeated twice for NoPest-Ag5, Ag+ ions and control groups, and data were combined. Algae were cultured in an Erlenmeyer flask with 100 mL growth media using a16:8 h day:night cycle at 25±2° C. under the LED lighting of 4830 lux. Microscopic analysis coupled with hemocytometer was used to measure cell growth, and total chlorophyll (chlorophyll [a+b]) was used to measure primary productivity, in algae.

[2] = tested on: Pseudokirchneriella subcapitata; assay: Green alga total chlorophyll (a+b) analysis; type: cell-based
Description: as §1, with “mL). Chlorophylls (a and b) were extracted using a 95% ethanol method and measured using an UV-Vis spectrophotometer (Hach DR6000).” for “mL).”, “Chlorophylls were” for “Cell count was”
as §2
1.b. Chlorophyll analysis: Chlorophylls (a and b) were extracted using 95% ethanol method, measured using UV-Vis spectrophotometer (Hach DR6000), and reported as total chlorophyll (a+b).

Daphnia magna [3] = assay: Daphnia magna acute 48-hour survival test
Description: FIG. 22 depicts a Daphnia magna 48-hour (acute) toxicity test.
This mirrors OECD 202, Daphnia sp. Reproduction Test. […] Daphnia were cultured in a beaker (500 mL) using 16:8 h day:night cycle at 20±2° C. under the diffused cool LED lighting.

[4] = tested on: honeybee, Apis mellifera L.; assay: Honeybee 48-hour contact (dermal) exposure test (OECD 214); type: in vivo; conditions: for 48-hour Mortality: per replicate of 10 bees, listed as Positive Control
Description: (§3) Pollinators, especially honeybees, are susceptible to certain insecticides. Understanding the susceptibility of honeybees will determine the test substance's safe use in the environment as well as when the product should be used in relation to honeybee activity.
Honeybee 48-hour Contact (Dermal) Exposure Test Contact exposure followed OECD Test 214 method. Young adult worker honeybees were exposed to six test doses ranging from 0.1 to 40 ng a.i./bee administered topically to the dorsal side of the thorax of each bee in a 2 μL droplet of water containing 1% Tween 80 surfactant. A negative control group and a surfactant control group were maintained concurrently. Additional groups of bees from the same source were nominally dosed with imidacloprid, at 0.032, 0.08 and 0.2 μg a.i./bee as a positive control substance. The positive control test was conducted concurrently with the definitive test and the bees were administered topically to the dorsal side of the thorax of each bee in a 2.0 μL droplet with water containing […] surfactant. Three replicate test chambers were maintained in each control and treatment group, with 10 bees in each test chamber. Observations of mortality and other signs of toxicity were made for approximately 48 hours after dosing. Cumulative mortality observed in the test groups was used to determine the LD50.

[5] = tested on: honeybee, Apis mellifera L.; assay: as above; type: in vivo; conditions: 0.008 μg a.i./bee [4 mg a.i./L], per replicate of 10 bees, listed as Positive Control
Daphnia magna [6] = assay: Daphnia magna chronic 21-day reproduction test; type: in vivo
Description: FIG. 23 depicts a Daphnia magna 21-day (chronic) reproduction test.
This mirrors OECD 202, Daphnia sp. Reproduction Test.

[7] = tested on: honeybee, Apis mellifera L.; assay: Honeybee 48-hour oral exposure test (OECD 213); type: in vivo; conditions: for 48-hour Mortality: per replicate of 10 bees; for Consumption after 6 hours: Consumed: per replicate, 200 μL provided
Description: as §3
Honeybee 48-hour Oral Exposure Test: Oral exposure followed OECD Test 213 method. […] The test included nominal test item doses ranging from 1 to 400 ng a.i./bee (ppt a.i./bee) and a concurrent negative control group. Additional groups of bees from the same source were dosed with imidacloprid, at 0.0013, 0.0032 and 0.008 μg a.i./bee (ppb a.i./bee) as a positive control substance, also conducted concurrently. Three replicate test chambers were maintained in each control and treatment group, with 10 bees in each test chamber. Observations of mortality and other signs of toxicity were made for approximately 48 hours after dosing. Cumulative mortality observed in the test groups was used to determine the LD50 (lethal dose that kills 50% of the test populations).

Soybean seeds = assay: Soybean seedling biomass; type: in vivo, Glycine max; conditions: 0.2-50 mg/L, day-7
Description: FIG. 13 depicts the effect of exposure to NH2—AgNPs on soybean seedling biomass.

soybean seed = assay: Soybean seed germination; conditions: 0.25-50 mg/L, 7 days
Corn (Zea mays) seeds = assay: Corn seed germination; conditions: 0.25-50 mg/L, 7 days
E. coli DH5α [8] = assay: Surface interaction with bacterial cells (imaging); type: cell-based, Escherichia coli; conditions: 10 mg/L (as total Ag), 72 h
Description: (§4) FIG. 8 depicts the antimicrobial effects of positively charged NH2—AgNPs compared with carboxylate/citrate AgNPs (cit-AgNPs) and Ag^+ ions on E. coli DH5α and K12 growth (panel A), and the effects of the surface interaction of 10 mg/L (equivalent to 10 ppm) NH2—AgNPs compared with the effects of the surface interaction of Cit-AgNPs and Ag^+ ions on E. coli DH5α (panel B).

E. coli DH5α [9] = assay: Antimicrobial growth curves; type: cell-based, Escherichia coli; conditions: 10 ppm
Description: as §4

E. coli K12 = assay: Antimicrobial growth curves; type: cell-based, Escherichia coli; conditions: 10 ppm
Description: as §4

[10] = 0.032 μg a.i./bee [16 mg a.i./L]
[11] = 0.2 μg a.i./bee [100 mg a.i./L]
[12] = 0.0013 μg a.i./bee [0.0065 mg a.i./L]
[13] = 0.0032 μg a.i./bee [0.016 mg a.i./L]
[14] = 0.0032 μg a.i./bee [0.016 mg a.i./L], listed as Positive Control
[15] = 0.008 μg a.i./bee [0.04 mg a.i./L]
[16] = 0.008 μg a.i./bee [0.04 mg a.i./L], listed as Positive Control

[Cd+2] [Cd^2+ ions]
Algal growth compared to control (cell count) ([1]; 0.5 mg/L): stimulatory
Algal toxicity (cell count) ([1]; at or above 0.75 mg/L): toxicity of Cd^2+ ions increased
Chlorophyll synthesis ([2]; 0.05-0.75 mg/L): chlorophyll synthesis did occur
Chlorophyll synthesis compared to control ([2]; at or above 1 mg/L): inhibited chlorophyll synthesis

[Cu+2] [Cu^2+ ions]
Mean survival (Daphnia magna [3]; 0.5 mg/L): 0%

O=[N+]([O-])NC1=NCCN1Cc1ccc(Cl)nc1 [Imidacloprid]
48-hour Mortality Mean ([4]; 0.008 μg a.i./bee [4 mg a.i./L]): 10%
48-hour Mortality Mean [4, 10]: 33%
48-hour Mortality [4, 10]: 40% and 10% and 50%
48-hour Mortality Mean [4, 11]: 77%
48-hour Mortality [4, 11]: 70% and 100% and 60%
Surviving bees that appeared lethargic ([4]; 24 lethargic out of 54 surviving bees): 46.3%
LD50 ([4]; 48-hour): 0.11 μg a.i./bee
Average mortality ([4]; 48-hr, positive control doses, n=30 bees per concentration): 10%-77%
Comparative toxicity of all four test compounds (cell count) [1]: least toxic
Algal toxicity based on cell count ([1]; all concentrations tested): generally non-toxic, except at a high concentration of 100 mg/L
Cell growth ([1]; by day-28): concentration-dependent inhibition above 1 mg/L
48-hour Mortality [5]: 0% and 20% and 10%
Mean survival (Daphnia magna [3]; all concentrations tested): 66.6-86.6%
Comparative toxicity of all four test compounds (chlorophyll) [2]: least toxic
Toxicity by total chlorophyll [2]: generally non-toxic
Reproduction compared with control (Daphnia magna [6]): not significantly different from control
48-hour Mortality Mean [7, 12]: 0%
Consumption after 6 hours: Consumed, Mean [7, 12]: 198 µL
48-hour Mortality [7, 12]: 0%
Consumption after 6 hours: Consumed ([7]; 0.0013 μg a.i./bee [0.0065 mg a.i./L], listed as Positive Control): 200 μL (2×) and 195 μL
48-hour Mortality Mean [7, 13]: 3%
Consumption after 6 hours: Consumed, Mean [7, 13]: 163 µL
48-hour Mortality [7, 14]: 0% (2×) and 10%
Consumption after 6 hours: Consumed [7, 14]: 140 µL and 150 µL and 200 µL
48-hour Mortality Mean [7, 15]: 7%
Consumption after 6 hours: Consumed, Mean [7, 15]: 88 µL
48-hour Mortality [7, 16]: 0% (2×) and 20%
Consumption after 6 hours: Consumed [7, 16]: 85 µL and 110 µL and 70 µL
Average survival ([7]; 48-hr, 0.0013-0.008 μg a.i./bee): 93%-97%
Appearance of surviving bees at test termination ([7]; 48 hours): appeared normal
Mean consumption per replicate ([7]; positive control groups): 88 to 198 µL

[Ag+] [Ag^+ ions]
Seedling biomass compared to control (water only) (Soybean seeds): promoted seedling biomass
Comparative toxicity of all four test compounds (cell count) [1]: most toxic
Algal growth compared to control (cell count) ([1]; at or above 1 mg/L): inhibited algal growth
Toxicity in germination of soybean (soybean seed): non-toxic
Toxicity in germination of corn (Corn (Zea mays) seeds): non-toxic
Cell integrity after surface interaction (E. coli DH5α [8]): intact cells were observed, but with a shape change to a hexagonal honeycomb like phenotype lacking adherent fimbriae
Toxicity by total chlorophyll ([2]; 10 mg/L): less toxic compared to NoPest-Ag5
Nature of effect based on growth curves (E. coli DH5α [9]): bacteriostatic effects
Nature of effect based on growth curves (E. coli K12): bacteriostatic effects
Mean decrease in reproduction (Daphnia magna [6]; 0.01 mg/L): 6.6%
Mean increase in reproduction (Daphnia magna [6]; concentrations except 0.01 mg/L): 126.6-1120%
